From patent publication US6737383B1, “Herbicidal oxadiazolidines” (priority 1999, dated 2004)

Columns and labels:
dallisgrass = test: Test D dallisgrass; assay type: in vivo, Paspalum dilatatum; conditions: Preemergence, 0 to 100 scale
Procedure, shortened: (§1)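 Herbicide screen in the greenhouse. A non-phytotoxic solvent mixture with surfactant carried the test chemical; in pre-emergence tests it went onto the soil of pots seeded no more than a day earlier. Injury was scored by eye 14 to 21 days after application, 0 to 100.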

bermuda-grass = test: Test D bermudagrass; assay type: in vivo, Cynodon dactylon; conditions: Preemergence, 0 to 100 scale
Procedure, shortened: as §1

common ragweed = test: Test D common ragweed; assay type: in vivo, Ambrosia elatior; conditions: Preemergence, 0 to 100 scale
Procedure, shortened: as §1

common groundsel = test: Test D common groundsel; assay type: in vivo, Senecio vulgaris; conditions: Preemergence, 0 to 100 scale
Procedure, shortened: as §1

Johnson grass = test: Test D Johnson grass; assay type: in vivo, Sorghum halepense; conditions: Preemergence, 0 to 100 scale
Procedure, shortened: as §1

pitted morningglory = test: Test D pitted morningglory; assay type: in vivo, Ipomoea lacunosa; conditions: Preemergence, 0 to 100 scale
Procedure, shortened: as §1

goosegrass = test: Test D goosegrass; assay type: in vivo, Eleusine indica; conditions: Preemergence, 0 to 100 scale
Procedure, shortened: as §1

common pursiane = test: Test D common purslane; assay type: in vivo, Portulaca oleracea; conditions: Preemergence, 0 to 100 scale
Procedure, shortened: as §1

Green foxtail = test: Test D green foxtail; assay type: in vivo; conditions: Preemergence, 0 to 100 scale
Procedure, shortened: as §1

sandbur = test: Test D sandbur; assay type: in vivo, Cenchrus echinatus; conditions: Preemergence, 0 to 100 scale
Procedure, shortened: as §1

purple nutsedge = test: Test D purple nutsedge; assay type: in vivo, Cyperus rotundus; conditions: Preemergence, 0 to 100 scale
Procedure, shortened: as §1

itchgrass = test: Test D itchgrass; assay type: in vivo, Rottboellia exaltata; conditions: Preemergence, 0 to 100 scale
Procedure, shortened: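 Scoring used a 0–100 visual injury scale, with 0 meaning no effect and 100 complete control, assessed 14–21 days after application alongside untreated pots. Preemergence treatments went onto sandy loam surfaces of separately potted seeds within a day of sowing.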

surinam grass = test: Test D surinam grass; assay type: in vivo, Brachiaria decumbens
Procedure, shortened: as §1

large crabgrass = test: Test D large crabgrass; assay type: in vivo, Digitaria sanguinalis; conditions: Preemergence, 0 to 100 scale
Procedure, shortened: as §1

[1] = Rate 16 g/ha, 0 no injury, 100 complete control
[2] = Rate 32 g/ha, 0 no injury, 100 complete control
[3] = Rate 64 g/ha, 0 no injury, 100 complete control
[4] = Rate 125 g/ha, 0 no injury, 100 complete control
[5] = Rate 16 g/ha; Preemergence; 0 to 100 scale, 0 no injury, 100 complete control
[6] = Rate 32 g/ha; Preemergence; 0 to 100 scale, 0 no injury, 100 complete control
[7] = Rate 64 g/ha, Preemergence; 0 to 100 scale, 0 no injury, 100 complete control
[8] = Rate 125 g/ha, Preemergence; 0 to 100 scale, 0 no injury, 100 complete control
[9] = Rate 250 g/ha; Preemergence; 0 to 100 scale
[10] = Rate 500 g/ha; Preemergence; 0 to 100 scale

CC(C)N(C(=O)n1oc(=O)n(Cc2ccccc2)c1=O)c1ccc(F)cc1 [Compound 78]
Plant response rating, Dallisgrass (dallisgrass; [1]): 0
Plant response rating, Dallisgrass (dallisgrass; [2]): 0
Plant response rating, Dallisgrass (dallisgrass; [3]): 75
Plant response rating, Dallisgrass (dallisgrass; [4]): 100
Plant response rating, Dallisgrass (dallisgrass; Rate 250 g/ha): 100
Plant response rating, Dallisgrass (dallisgrass; Rate 500 g/ha): 100
Plant response rating, Bermudagrass (bermuda-grass; [1]): 75
Plant response rating, Bermudagrass (bermuda-grass; [2]): 85
Plant response rating, Bermudagrass (bermuda-grass; [3]): 90
Plant response rating, Bermudagrass (bermuda-grass; [4]): 98
Plant response rating, Bermudagrass (bermuda-grass; Rate 250 g/ha): 100
Plant response rating, Bermudagrass (bermuda-grass; Rate 500 g/ha): 100
Plant response rating, C. ragweed (common ragweed; [1]): 0
Plant response rating, C. ragweed (common ragweed; [2]): 0
Plant response rating, C. ragweed (common ragweed; [3]): 0
Plant response rating, C. ragweed (common ragweed; [4]): 0
Plant response rating, C. ragweed (common ragweed; Rate 250 g/ha): 0
Plant response rating, C. ragweed (common ragweed; Rate 500 g/ha): 0
Plant response rating, Com. groundsel (common groundsel; [1]): 0
Plant response rating, Com. groundsel (common groundsel; [2]): 0
Plant response rating, Com. groundsel (common groundsel; [3]): 0
Plant response rating, Com. groundsel (common groundsel; [4]): 0
Plant response rating, Com. groundsel (common groundsel; Rate 250 g/ha): 0
Plant response rating, Com. groundsel (common groundsel; Rate 500 g/ha): 0
Plant response rating, Johnsongrass (Johnson grass; [1]): 0
Plant response rating, Johnsongrass (Johnson grass; [2]): 0
Plant response rating, Johnsongrass (Johnson grass; [3]): 0
Plant response rating, Johnsongrass (Johnson grass; [4]): 0
Plant response rating, Johnsongrass (Johnson grass; Rate 250 g/ha): 20
Plant response rating, Johnsongrass (Johnson grass; Rate 500 g/ha): 20
Plant response rating, P. morninglory (pitted morningglory; [1]): 0
Plant response rating, P. morninglory (pitted morningglory; [2]): 0
Plant response rating, P. morninglory (pitted morningglory; [3]): 0
Plant response rating, P. morninglory (pitted morningglory; [4]): 0
Plant response rating, P. morninglory (pitted morningglory; Rate 250 g/ha): 0
Plant response rating, P. morninglory (pitted morningglory; Rate 500 g/ha): 0
Plant response rating, Goosegrass (goosegrass; [1]): 10
Plant response rating, Goosegrass (goosegrass; [2]): 10
Plant response rating, Goosegrass (goosegrass; [3]): 85
Plant response rating, Goosegrass (goosegrass; [4]): 98
Plant response rating, Goosegrass (goosegrass; Rate 250 g/ha): 98
Plant response rating, Goosegrass (goosegrass; Rate 500 g/ha): 100
Plant response rating, C. purslane (common pursiane; [1]): 0
Plant response rating, C. purslane (common pursiane; [2]): 0
Plant response rating, C. purslane (common pursiane; [3]): 0
Plant response rating, C. purslane (common pursiane; [4]): 0
Plant response rating, C. purslane (common pursiane; Rate 250 g/ha): 0
Plant response rating, C. purslane (common pursiane; Rate 500 g/ha): 0
Plant response rating, Green foxtail (Green foxtail; Rate 250 g/ha): 100
Plant response rating, Green foxtail (Green foxtail; Rate 500 g/ha): 100
Plant response rating, Sandbur (sandbur; [1]): 0
Plant response rating, Sandbur (sandbur; [2]): 0
Sandbur plant response rating (sandbur; [3]): 0
Sandbur plant response rating (sandbur; [4]): 0
Plant response rating, Sandbur (sandbur; Rate 250 g/ha): 75
Plant response rating, Sandbur (sandbur; Rate 500 g/ha): 80
Plant response rating, Purple nutsedge (purple nutsedge; [1]): 0
Plant response rating, Purple nutsedge (purple nutsedge; [2]): 0
Purple nutsedge plant response rating (purple nutsedge; [3]): 0
Purple nutsedge plant response rating (purple nutsedge; [4]): 0
Plant response rating, Purple nutsedge (purple nutsedge; Rate 250 g/ha): 0
Plant response rating, Purple nutsedge (purple nutsedge; Rate 500 g/ha): 0
Plant response rating, Itchgrass (itchgrass; [1]): 0
Plant response rating, Itchgrass (itchgrass; [2]): 0
Plant response rating, Itchgrass (itchgrass; [3]): 0
Plant response rating, Itchgrass (itchgrass; [4]): 0
Plant response rating, Itchgrass (itchgrass; Rate 250 g/ha): 10
Plant response rating, Itchgrass (itchgrass; Rate 500 g/ha): 20
Plant response rating, Surinam grass (surinam grass; [5]): 0
Plant response rating, Surinam grass (surinam grass; [6]): 0
Surinam grass plant response rating (surinam grass; [7]): 20
Surinam grass plant response rating (surinam grass; [8]): 30
Plant response rating, Surinam grass (surinam grass; [9]): 85
Plant response rating, Surinam grass (surinam grass; Rate 500 g/ha, Preemergence; 0 to 100 scale): 96
Plant response rating, Surinam grass (surinam grass; [10]): 98
Plant response rating, Large crabgrass (large crabgrass; [1]): 0
Plant response rating, Large crabgrass (large crabgrass; [2]): 40
Plant response rating, Large crabgrass (large crabgrass; [3]): 98
Plant response rating, Large crabgrass (large crabgrass; [4]): 100
Plant response rating, Large crabgrass (large crabgrass; Rate 250 g/ha): 100
Plant response rating, Large crabgrass (large crabgrass; Rate 500 g/ha): 100

CC(C)N(C(=O)n1oc(=O)n(N(C)C)c1=O)c1ccc(F)cc1 [Compound 170]
Plant response rating, Dallisgrass (dallisgrass; [1]): 0
Plant response rating, Dallisgrass (dallisgrass; [2]): 0
Plant response rating, Dallisgrass (dallisgrass; [3]): 85
Plant response rating, Dallisgrass (dallisgrass; [4]): 85
Plant response rating, Dallisgrass (dallisgrass; Rate 250 g/ha): 100
Plant response rating, Dallisgrass (dallisgrass; Rate 500 g/ha): 100
Plant response rating, Bermudagrass (bermuda-grass; [1]): 80
Plant response rating, Bermudagrass (bermuda-grass; [2]): 90
Plant response rating, Bermudagrass (bermuda-grass; [3]): 100
Plant response rating, Bermudagrass (bermuda-grass; [4]): 100
Plant response rating, Bermudagrass (bermuda-grass; Rate 250 g/ha): 100
Plant response rating, Bermudagrass (bermuda-grass; Rate 500 g/ha): 100
Plant response rating, C. ragweed (common ragweed; [1]): 0
Plant response rating, C. ragweed (common ragweed; [2]): 0
Plant response rating, C. ragweed (common ragweed; [3]): 0
Plant response rating, C. ragweed (common ragweed; [4]): 0
Plant response rating, C. ragweed (common ragweed; Rate 250 g/ha): 40
Plant response rating, C. ragweed (common ragweed; Rate 500 g/ha): 45
Plant response rating, Com. groundsel (common groundsel; [1]): 0
Plant response rating, Com. groundsel (common groundsel; [2]): 0
Plant response rating, Com. groundsel (common groundsel; [3]): 0
Plant response rating, Com. groundsel (common groundsel; [4]): 45
Plant response rating, Com. groundsel (common groundsel; Rate 250 g/ha): 45
Plant response rating, Com. groundsel (common groundsel; Rate 500 g/ha): 100
Plant response rating, Johnsongrass (Johnson grass; [1]): 0
Plant response rating, Johnsongrass (Johnson grass; [2]): 0
Plant response rating, Johnsongrass (Johnson grass; [3]): 0
Plant response rating, Johnsongrass (Johnson grass; [4]): 75
Plant response rating, Johnsongrass (Johnson grass; Rate 250 g/ha): 100
Plant response rating, Johnsongrass (Johnson grass; Rate 500 g/ha): 95
Plant response rating, P. morninglory (pitted morningglory; [1]): 20
Plant response rating, P. morninglory (pitted morningglory; [2]): 20
Plant response rating, P. morninglory (pitted morningglory; [3]): 20
Plant response rating, P. morninglory (pitted morningglory; [4]): 40
Plant response rating, P. morninglory (pitted morningglory; Rate 250 g/ha): 65
Plant response rating, P. morninglory (pitted morningglory; Rate 500 g/ha): 85
Plant response rating, Goosegrass (goosegrass; [1]): 50
Plant response rating, Goosegrass (goosegrass; [2]): 65
Plant response rating, Goosegrass (goosegrass; [3]): 75
Plant response rating, Goosegrass (goosegrass; [4]): 75
Plant response rating, Goosegrass (goosegrass; Rate 250 g/ha): 98
Plant response rating, Goosegrass (goosegrass; Rate 500 g/ha): 100
Plant response rating, C. purslane (common pursiane; [1]): 0
Plant response rating, C. purslane (common pursiane; [2]): 0
Plant response rating, C. purslane (common pursiane; [3]): 0
Plant response rating, C. purslane (common pursiane; [4]): 0
Plant response rating, C. purslane (common pursiane; Rate 250 g/ha): 0
Plant response rating, C. purslane (common pursiane; Rate 500 g/ha): 10
Plant response rating, Green foxtail (Green foxtail; Rate 250 g/ha): 100
Plant response rating, Green foxtail (Green foxtail; Rate 500 g/ha): 100
Plant response rating, Sandbur (sandbur; [1]): 0
Plant response rating, Sandbur (sandbur; [2]): 0
Sandbur plant response rating (sandbur; [3]): 40
Sandbur plant response rating (sandbur; [4]): 40
Plant response rating, Sandbur (sandbur; Rate 250 g/ha): 40
Plant response rating, Sandbur (sandbur; Rate 500 g/ha): 98
Plant response rating, Purple nutsedge (purple nutsedge; [1]): 0
Plant response rating, Purple nutsedge (purple nutsedge; [2]): 0
Purple nutsedge plant response rating (purple nutsedge; [3]): 0
Purple nutsedge plant response rating (purple nutsedge; [4]): 0
Plant response rating, Purple nutsedge (purple nutsedge; Rate 250 g/ha): 65
Plant response rating, Purple nutsedge (purple nutsedge; Rate 500 g/ha): 65
Plant response rating, Itchgrass (itchgrass; [1]): 0
Plant response rating, Itchgrass (itchgrass; [2]): 0
Plant response rating, Itchgrass (itchgrass; [3]): 0
Plant response rating, Itchgrass (itchgrass; [4]): 30
Plant response rating, Itchgrass (itchgrass; Rate 250 g/ha): 45
Plant response rating, Itchgrass (itchgrass; Rate 500 g/ha): 50
Plant response rating, Surinam grass (surinam grass; [5]): 0
Plant response rating, Surinam grass (surinam grass; [6]): 0
Surinam grass plant response rating (surinam grass; [7]): 30
Surinam grass plant response rating (surinam grass; [8]): 75
Plant response rating, Surinam grass (surinam grass; [9]): 100
Plant response rating, Surinam grass (surinam grass; [10]): 100
Plant response rating, Large crabgrass (large crabgrass; [1]): 30
Plant response rating, Large crabgrass (large crabgrass; [2]): 85
Plant response rating, Large crabgrass (large crabgrass; [3]): 100
Plant response rating, Large crabgrass (large crabgrass; [4]): 100
Plant response rating, Large crabgrass (large crabgrass; Rate 250 g/ha): 100
Plant response rating, Large crabgrass (large crabgrass; Rate 500 g/ha): 100
